# Results from patent US6737383B1, “Herbicidal oxadiazolidines” (priority 1999, dated 2004).
# Experiments:
# velvetleaf = test: Test B pre/postemergence velvetleaf; type: in vivo, Abutilon theophrasti
# How it was run: (§1)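 Response is a visual 0-to-10 score relative to untreated plants, where 0 means no effect and 10 means complete control, taken twelve to sixteen days after application. Treatments went onto soil at planting and onto foliage of 1- to 4-leaf plants, using a surfactant-containing non-phytotoxic solvent.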
# smallflower flatsedge = test: Test B flood test smallflower flatsedge; type: in vivo, Cyperus difformis
# How it was run: (§2)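 Flood test on plants grown to the 2-leaf stage; treated plants kept in greenhouse twelve to sixteen days, then visually rated against controls on a 0 (no effect) to 10 (complete control) scale.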
# crabgrass = test: Test B pre/postemergence crabgrass; type: in vivo, Digitaria sanguinalis
# How it was run: as §1
# wheat = test: Test B pre/postemergence wheat; type: in vivo, Triticum aestivum
# How it was run: as §1
# sugar beet = test: Test B pre/postemergence sugar beet; type: in vivo, Beta vulgaris
# How it was run: as §1
# soybean = test: Test B pre/postemergence soybean; type: in vivo, Glycine max
# How it was run: as §1
# blackgrass = test: Test B pre/postemergence blackgrass; type: in vivo, Alopecurus myosuroides
# How it was run: as §1
# duck salad = test: Test B flood test duck salad; type: in vivo, Heteranthera limosa
# How it was run: as §2
# cocklebur = test: Test B pre/postemergence cocklebur; type: in vivo, Xanthium strumarium
# How it was run: as §1
# rice = test: Test B flood test rice; type: in vivo, Oryza sativa
# How it was run: as §2
# giant foxtail = test: Test B pre/postemergence giant foxtail; type: in vivo, Setaria faberii
# How it was run: as §1
# pigweed = test: Test B pre/postemergence pigweed; type: in vivo, Amaranthus retroflexus
# How it was run: as §1
# purple nutsedge = test: Test B pre/postemergence purple nutsedge; type: in vivo, Cyperus rotundus
# How it was run: as §1
# corn = test: Test B pre/postemergence corn; type: in vivo, Zea mays
# How it was run: as §1
# morningglory = test: Test B pre/postemergence morningglory; type: in vivo, Ipomoea hederacea
# How it was run: as §1
# rape = test: Test B pre/postemergence rape; type: in vivo, Brassica napus
# How it was run: as §1
# [1] = Postemergence, Rate 62 g/ha, scale 0 to 10, 0 is no effect, 10 is complete control
# [2] = Postemergence, Rate 250 g/ha, scale 0 to 10, 0 no effect, 10 complete control
# [3] = Preemergence, Rate 62 g/ha, scale 0 to 10, 0 is no effect, 10 is complete control
# [4] = Preemergence, Rate 125 g/ha, scale 0 to 10 (0 no effect, 10 complete control)
# [5] = Preemergence, Rate 250 g/ha, scale of 0 to 10 where 0 is no effect and 10 is complete control
# [6] = Preemergence, Rate 500 g/ha, scale 0 (no effect) to 10 (complete control)
# [7] = Rate 125 g/ha, Postemergence, scale 0 to 10, 0 no effect, 10 complete control
# [8] = Rate 125 g/ha, Postemergence section (flood test species), scale 0 to 10, 0 no effect, 10 complete control
# [9] = flood test, listed under Postemergence, Rate 250 g/ha, scale 0 to 10, 0 no effect, 10 complete control
# [10] = Rate 500 g/ha, Postemergence, 0 to 10 scale (0 no effect, 10 complete control)
# [11] = Rate 500 g/ha, Postemergence section of Table B, 0 to 10 scale (0 no effect, 10 complete control)
compound,measurement,setting,value
CC(C)N(C(=O)n1oc(=O)n(-c2ccccc2)c1=O)c1ccc(F)cc1 [Compound 38],Velvetleaf plant response rating,velvetleaf; [1],0
same,Velvetleaf plant response rating,velvetleaf; [2],0
same,"Plant response rating, Velvetleaf",velvetleaf; [3],0
same,"Plant response rating, Velvetleaf",velvetleaf; [4],0
same,"Plant response rating, Velvetleaf",velvetleaf; [5],0
same,Velvetleaf plant response rating,velvetleaf; [6],0
same,Velvetleaf plant response rating,velvetleaf; [7],0
same,S. Flatsedge plant response rating,smallflower flatsedge; [1],0
same,S. Flatsedge plant response rating,smallflower flatsedge; [8],0
same,S. Flatsedge plant response rating,smallflower flatsedge; [9],0
same,Crabgrass plant response rating,crabgrass; [1],0
same,Crabgrass plant response rating,crabgrass; [2],8
same,"Plant response rating, Crabgrass",crabgrass; [3],2
same,"Plant response rating, Crabgrass",crabgrass; [4],5
same,"Plant response rating, Crabgrass",crabgrass; [5],10
same,Crabgrass plant response rating,crabgrass; [6],10
same,Crabgrass plant response rating,crabgrass; [7],7
same,Crabgrass plant response rating,crabgrass; [10],9
same,Wheat plant response rating,wheat; [1],0
same,Wheat plant response rating,wheat; [2],0
same,"Plant response rating, Wheat",wheat; [3],0
same,"Plant response rating, Wheat",wheat; [4],0
same,"Plant response rating, Wheat",wheat; [5],0
same,Wheat plant response rating,wheat; [6],0
same,Wheat plant response rating,wheat; [7],0
same,Sugarbeets plant response rating,sugar beet; [1],0
same,Sugarbeets plant response rating,sugar beet; [2],0
same,"Plant response rating, Sugarbeets",sugar beet; [3],0
same,"Plant response rating, Sugarbeets",sugar beet; [4],0
same,"Plant response rating, Sugarbeets",sugar beet; [5],2
same,Sugarbeets plant response rating,sugar beet; [6],6
same,Sugarbeets plant response rating,sugar beet; [7],0
same,Soybean plant response rating,soybean; [1],0
same,Soybean plant response rating,soybean; [2],0
same,"Plant response rating, Soybean",soybean; [3],0
same,"Plant response rating, Soybean",soybean; [4],0
same,"Plant response rating, Soybean",soybean; [5],0
same,Soybean plant response rating,soybean; [6],2
same,Soybean plant response rating,soybean; [7],0
same,Blackgrass plant response rating,blackgrass; [1],0
same,Blackgrass plant response rating,blackgrass; [2],7
same,"Plant response rating, Blackgrass",blackgrass; [3],4
same,"Plant response rating, Blackgrass",blackgrass; [4],6
same,"Plant response rating, Blackgrass",blackgrass; [5],10
same,Blackgrass plant response rating,blackgrass; [6],10
same,Blackgrass plant response rating,blackgrass; [7],3
same,Blackgrass plant response rating,blackgrass; [10],8
same,Ducksalad plant response rating,duck salad; [1],0
same,Ducksalad plant response rating,duck salad; [11],0
same,Ducksalad plant response rating,duck salad; [9],0
same,Cocklebur plant response rating,cocklebur; [1],0
same,Cocklebur plant response rating,cocklebur; [2],1
same,"Plant response rating, Cocklebur",cocklebur; [3],0
same,"Plant response rating, Cocklebur",cocklebur; [4],0
same,Cocklebur plant response rating,cocklebur; [6],0
same,Cocklebur plant response rating,cocklebur; [7],0
same,Cocklebur plant response rating,cocklebur; [10],1
same,Rice plant response rating,rice; [1],0
same,Rice plant response rating,rice; [8],0
same,Rice plant response rating,rice; [11],0
same,Rice plant response rating,rice; [9],0
same,Giant foxtail plant response rating,giant foxtail; [1],0
same,Giant foxtail plant response rating,giant foxtail; [2],4
same,"Plant response rating, Giant foxtail",giant foxtail; [3],10
same,"Plant response rating, Giant foxtail",giant foxtail; [4],10
same,"Plant response rating, Giant foxtail",giant foxtail; [5],10
same,Giant foxtail plant response rating,giant foxtail; [6],10
same,Giant foxtail plant response rating,giant foxtail; [7],2
same,Giant foxtail plant response rating,giant foxtail; [10],8
same,Redroot pigweed plant response rating,pigweed; [1],0
same,Redroot pigweed plant response rating,pigweed; [2],0
same,"Plant response rating, Redroot pigweed",pigweed; [3],2
same,"Plant response rating, Redroot pigweed",pigweed; [4],10
same,"Plant response rating, Redroot pigweed",pigweed; [5],10
same,Redroot pigweed plant response rating,pigweed; [6],10
same,Redroot pigweed plant response rating,pigweed; [7],0
same,Redroot pigweed plant response rating,pigweed; [10],0
same,Nutsedge plant response rating,purple nutsedge; [1],0
same,Nutsedge plant response rating,purple nutsedge; [2],0
same,"Plant response rating, Nutsedge",purple nutsedge; [3],0
same,"Plant response rating, Nutsedge",purple nutsedge; [4],0
same,"Plant response rating, Nutsedge",purple nutsedge; [5],0
same,Nutsedge plant response rating,purple nutsedge; [6],0
same,Nutsedge plant response rating,purple nutsedge; [7],0
same,Nutsedge plant response rating,purple nutsedge; [10],0
same,Corn plant response rating,corn; [1],0
same,Corn plant response rating,corn; [2],0
same,"Plant response rating, Corn",corn; [3],0
same,"Plant response rating, Corn",corn; [4],0
same,"Plant response rating, Corn",corn; [5],0
same,Corn plant response rating,corn; [6],0
same,Corn plant response rating,corn; [7],0
same,Corn plant response rating,corn; [10],0
same,Morningglory plant response rating,morningglory; [1],0
same,Morningglory plant response rating,morningglory; [2],1
same,"Plant response rating, Morningglory",morningglory; [3],0
same,"Plant response rating, Morningglory",morningglory; [4],0
same,"Plant response rating, Morningglory",morningglory; [5],0
same,Morningglory plant response rating,morningglory; [6],0
same,Morningglory plant response rating,morningglory; [7],0
same,Morningglory plant response rating,morningglory; [10],10
same,Rape plant response rating,rape; [1],0
same,Rape plant response rating,rape; [2],0
same,"Plant response rating, Rape",rape; [3],0
same,"Plant response rating, Rape",rape; [4],0
same,Rape plant response rating,rape; [6],0
same,Rape plant response rating,rape; [7],0
same,Rape plant response rating,rape; [10],0
